{"source": "patent US10259781B2", "about": "“Imaging agents” (THE REGENTS OF THE UNIVERSITY OF MICHIGAN, priority 2012, dated 2019)", "key": {"[1]": {"test_system": "cardiac sympathetic neurons (NET-mediated neuronal uptake)", "assay": "Isolated working rat heart model: neuronal uptake and clearance kinetics", "conditions": "isolated working rat heart (perfused, ex vivo), read-out: clearance rate from sympathetic neurons, major half-time (T1/2) (converted)", "description": "(§1) The radiotracer was infused into the heart for 10 minutes to measure the tracer uptake rate into cardiac sympathetic neurons (Kup, shown in units of ml/min/g tissue wet). Then, the heart was infused with normal heart perfusate to measure the tracer clearance rate from the heart over 2 hours.\n(§2) Experiments were conducted to test ^11C-phenoxyethylguanidine (PEG), e.g., to establish baseline values for the NET transport rate (Kup, expressed in units of mL perfusate/min/g wet) and the clearance rate from sympathetic neurons (T1/2, expressed in units of hours)."}, "[2]": {"test_system": "cardiac sympathetic neurons", "assay": "Isolated working rat heart model: neuronal uptake and clearance kinetics", "description": "as §1, §2"}, "[3]": {"assay": "Metabolic breakdown in monkey plasma (reverse-phase HPLC of venous blood samples)", "type": "in vivo, rhesus macaque monkey", "conditions": "monkey plasma", "description": "In some of the microPET studies, venous blood samples (e.g., n=6) were drawn to assess the metabolic breakdown of [^18F]4F-MHPG in plasma (see Table 1). Plasma was processed for injection onto a reverse-phase HPLC system equipped with a radiation detector. The percentages of intact parent tracer and radiolabeled metabolites were determined as a function of time. In this system, [^18F]4-MHPG has a retention time Rt of approximately 11.2 minutes while the main polar radiometabolite formed has an Rt of approximately 7.9 minutes."}, "Biodistribution in rats": {"assay": "Biodistribution in rats", "type": "in vivo, rat", "conditions": "30 minutes after injection, n=5", "description": "During the development of embodiments of the technology, data were collected from bioevaluation studies of [^18F]4F-MHPG. […]\nDuring the development of embodiments of the technology provided herein, the biodistribution of [^18F]4F-MHPG into the organs of rats was assessed. In particular, four time points (Table 3) were collected and used to derive human radiation absorbed dose estimates using the OLINDA/EXM 1.0 software package (see, e.g., Stabin et al. (2005) “OLINDA/EXM; the second-generation personal computer software for internal dose assessment in nuclear medicine”, J Nucl Med. 46: 1023-7). […] These values were entered into the Dynamic Bladder model of OLINDA/EXM, assuming a 4.0-hour void interval. Organs with the highest absorbed dose estimates included the urinary bladder wall (0.666 rad/mCi), […] (0.221 rad/mCi), small intestine (0.201 rad/mCi), and the heart wall (0.201 rad/mCi). An ‘effective dose’ of 0.091 rem/mCi was estimated for [^18F]4F-MHPG. Under United States Federal Regulations governing research with a new radiopharmaceutical (21 CFR § 361.1), the maximum allowable radiation absorbed dose to an individual organ (other than the gonads) is 5 rad. Considering the maximum estimated absorbed dose (urinary bladder wall; 0.666 rad/mCi), initial PET studies in human subjects could use a maximum of 7.5 mCi of [^18F]4F-MHPG. This would correspond to an ‘effective dose’ of 0.68 rem."}, "[4]": {"test_system": "cardiac sympathetic nerve terminals", "assay": "MicroPET imaging and myocardial kinetics (compartmental modeling, Patlak graphical analysis) in monkeys", "type": "in vivo, rhesus macaque monkey", "conditions": "indirect evidence from myocardial kinetics in monkeys", "description": "A series of microPET imaging studies were performed in the macaque model to assess image quality and tracer kinetics. In most of these the time course of the metabolic breakdown of [^18F]4F-MHPG in plasma was also determined. The studies are summarized below in Table 1.\nDuring the development of embodiments of the technology provided herein, the kinetics of [^18F]4F-MHPG in monkey hearts was assessed using either compartmental modeling or Patlak graphical analysis to obtain quantitative measures of regional cardiac sympathetic nerve density.\nFor some analyses, a simplified compartmental model that assumed irreversible trapping inside nerve terminals was used to estimate the model rate constants K1 (ml/min/g), k2 (min^−1), k3 (min^−1), and a blood volume fraction BV (dimensionless) (see, e.g., FIG. 7). In both the control studies and DMI blocking studies, the model quickly converged to a single global minimum in just a few iterations of the nonlinear regression analysis (FIG. 8). […] This aggregate parameter provides a stable measure of cardiac nerve density that declined in a dose-dependent manner with increasing DMI dose (FIG. 9, “Kinetic modeling”).\nFor some analyses, Patlak graphical analysis was used, which uses a mathematical transformation of the kinetic data Cp(t) and Ct(t) to generate a Tatlak plot′ having a characteristic linear phase (see, e.g., Patlak and Blasberg (1985) “Graphical evaluation of blood-to-brain transfer constants from multiple-time uptake data. Generalizations.” J Cereb Blood Flow 5: 584-90). The slope of the linear portion of a Patlak plot, Kp (ml/min/g), provides an alternate estimate of the ‘net uptake rate constant’ Ki (ml/min/g). Thus, for the model structure used (FIG. 7), the slope of the Patlak plot is given by Kp≈(K1k3)/(k2+k3).\nDuring the development of embodiments of the technology provided herein, the myocardial kinetics of [^18F]4F-MHPG was assessed using Patlak graphical analysis and metabolite-corrected plasma input functions. In this example, the Patlak plot is highly linear (r^2=1.00) and the estimated Patlak slope Kpatlak=0.252 ml/min/g. […] As such, regional estimates of the Patlak slope from Patlak analysis of the kinetics of [^18F]4F-MHPG serve as robust measures of regional cardiac sympathetic nerve density in patients with heart diseases."}}, "data": [{"smiles": "N=C(N)NCCOc1ccc(F)cc1", "note": "[4F-PEG, ^11C-4-fluoro-phenoxyethylguanidine]", "values": [{"measurement": "half-life", "setting": "[1]", "result": 3.5, "unit": "h"}, {"measurement": "neuronal uptake rate / NET transport rate (Kup)", "setting": "[2]", "result": 7.25, "unit": "mL/min/g wet"}]}, {"smiles": "N=[11C](N)NCC(O)c1cccc(O)c1", "note": "(centres unmarked) [GMO, [^11C]guanyl-meta-octopamine, reference compound]", "values": [{"measurement": "T1/2 for metabolic breakdown in plasma", "setting": "[3]", "result": "approximately 13 minutes"}]}, {"smiles": "N=C(N)NCCOc1cccc(O)c1", "note": "[MHPEG, ^11C-meta-hydroxy-phenoxyethylguanidine]", "values": [{"measurement": "neuronal uptake rate / NET transport rate (Kup)", "setting": "[2]", "result": 5.37, "unit": "mL/min/g wet"}, {"measurement": "vesicular trapping / retention", "setting": "[2]", "result": "complete trapping"}]}, {"smiles": "N=C(N)NCCOc1ccccc1", "note": "[PEG, ^11C-phenoxyethylguanidine]", "values": [{"measurement": "half-life", "setting": "[1]", "result": 5.7, "unit": "h"}, {"measurement": "neuronal uptake rate / NET transport rate (Kup)", "setting": "[2]", "result": 5.37, "unit": "mL/min/g wet"}]}, {"smiles": "N=C(N)NCCc1ccc(F)c(O)c1", "note": "[[^11C]4F-MHPG] [^11C-4-fluoro-meta-hydroxyphenethylguanidine]", "values": [{"measurement": "tissue concentration, adrenal medulla", "setting": "Biodistribution in rats", "result": "0.56 ± 0.21 percentage of the injected dose per gram"}, {"measurement": "tissue concentration, blood", "setting": "Biodistribution in rats", "result": "0.08 ± 0.01 percentage of the injected dose per gram"}, {"measurement": "tissue concentration, left ventricle", "setting": "Biodistribution in rats", "result": "1.77 ± 0.27 percentage of the injected dose per gram"}, {"measurement": "tissue concentration, liver", "setting": "Biodistribution in rats", "result": "1.22 ± 0.18 percentage of the injected dose per gram"}, {"measurement": "tissue concentration, lung", "setting": "Biodistribution in rats", "result": "0.56 ± 0.15 percentage of the injected dose per gram"}, {"measurement": "tissue concentration, muscle", "setting": "Biodistribution in rats", "result": "0.07 ± 0.01 percentage of the injected dose per gram"}, {"measurement": "tissue concentration, spleen", "setting": "Biodistribution in rats", "result": "0.52 ± 0.10 percentage of the injected dose per gram"}]}, {"smiles": "N=[11C](N)NCCOc1ccc(O)c(F)c1", "note": "[^11C-3F-PHPEG, ^11C-3-fluoro-para-hydroxy-phenoxyethylguanidine]", "values": [{"measurement": "neuronal uptake rate / NET transport rate (Kup)", "setting": "[2]", "result": 4.26, "unit": "mL/min/g wet"}]}, {"smiles": "N=[11C](N)NCCOc1ccc(F)c(O)c1", "note": "[^11C-4F-MHPEG, ^11C-4-fluoro-meta-phenoxyethylguanidine]", "values": [{"measurement": "neuronal uptake rate / NET transport rate (Kup)", "setting": "[2]", "result": 2.66, "unit": "mL/min/g wet"}, {"measurement": "vesicular trapping / retention", "setting": "[2]", "result": "effectively trapped inside storage vesicles"}]}, {"smiles": "N=C(N)NCC1COc2ccc(O)cc2O1", "note": "(centres unmarked) [^11C-7H-GOX, ^11C-7-hydroxy-guanoxan]", "values": [{"measurement": "retention time, compared between the two ring hydroxylated guanoxan analogs", "setting": "[2]", "result": "longer retention time"}, {"measurement": "uptake, compared between the two ring hydroxylated guanoxan analogs", "setting": "[2]", "result": "more rapid uptake"}]}, {"smiles": "N=C(N)NCCc1ccc([18F])c(OS(=O)(=O)O)c1", "note": "[sulfur conjugate of [^18F]4-MHPG]", "values": [{"measurement": "activity at the norepinephrine transporter (NET)", "setting": "[4]", "result": "inactive"}]}]}
